Reference: ChEMBL document CHEMBL1138904, “2-Aryl(pyrrolidin-4-yl)acetic acids are potent agonists of sphingosine-1-phosphate (S1P) receptors” (Bioorg Med Chem Lett, 2006)
Calls of active or inactive are those of the source. No cut-off for these calls is given here.

Legend:
PBL [1] = assay: […] of peripheral blood lymphocyte in mouse at 1 mg/kg, po; format: functional, organism-based; parameters: dose 1 mg/kg
[2] = target: Sphingosine 1-phosphate receptor 1 (Homo sapiens, UniProt P21453); assay: Displacement of [33P]S1P from human S1P1 receptor expressed in CHO cells; format: cell-based
[3] = target: Sphingosine 1-phosphate receptor 2 (Homo sapiens, UniProt O95136); assay: Displacement of [33P]S1P from human S1P2 receptor expressed in CHO cells; format: cell-based
[4] = target: Sphingosine 1-phosphate receptor 3 (Homo sapiens, UniProt Q99500); assay: Displacement of [33P]S1P from human S1P3 receptor expressed in CHO cells; format: cell-based
[5] = target: T1, Sphingosine 1-phosphate receptor 4 (Homo sapiens, UniProt O95977); assay: Displacement of [33P]S1P from human S1P4 receptor expressed in CHO cells; format: cell-based
T1 sequence (O95977 whole entry): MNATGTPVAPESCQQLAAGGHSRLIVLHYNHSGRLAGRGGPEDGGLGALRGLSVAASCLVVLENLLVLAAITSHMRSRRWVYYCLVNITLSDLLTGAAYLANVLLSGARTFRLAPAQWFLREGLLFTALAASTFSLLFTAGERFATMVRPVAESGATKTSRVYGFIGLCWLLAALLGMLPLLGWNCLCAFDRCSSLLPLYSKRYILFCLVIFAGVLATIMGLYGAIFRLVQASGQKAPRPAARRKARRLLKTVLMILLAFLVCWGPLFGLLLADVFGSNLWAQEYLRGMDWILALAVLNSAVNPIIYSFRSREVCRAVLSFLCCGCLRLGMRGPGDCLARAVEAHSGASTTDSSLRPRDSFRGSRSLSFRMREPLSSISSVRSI

[6] = target: Sphingosine 1-phosphate receptor 5 (Homo sapiens, UniProt Q9H228); assay: Displacement of [33P]S1P from human S1P5 receptor expressed in CHO cells; format: cell-based
[7] = Oral bioavailability in Sprague-Dawley rat at 1 mg/kg, iv and 2 mg/kg, po; format: ADME, organism-based; conditions: in vivo
PBL [8] = assay: […] of peripheral blood lymphocyte in orally dosed mouse; format: functional, organism-based
[9] = Clearance in Sprague-Dawley rat at 1 mg/kg, iv and 2 mg/kg, po; format: ADME, organism-based; conditions: in vivo
[10] = Volume of distribution in Sprague-Dawley rat at 1 mg/kg, iv and 2 mg/kg, po; format: ADME, organism-based; conditions: in vivo, read-out: Vss
[11] = Half life in Sprague-Dawley rat at 1 mg/kg, iv and 2 mg/kg, po; format: ADME, organism-based; conditions: in vivo
PBL [12] = assay: Reduction in peripheral blood lymphocyte count in mouse at 10 mg/kg, po relative to control; format: functional; parameters: scale not given: the % may be the effect or the level left

Chain of Sphingosine 1-phosphate receptor 3 (Q99500 whole entry): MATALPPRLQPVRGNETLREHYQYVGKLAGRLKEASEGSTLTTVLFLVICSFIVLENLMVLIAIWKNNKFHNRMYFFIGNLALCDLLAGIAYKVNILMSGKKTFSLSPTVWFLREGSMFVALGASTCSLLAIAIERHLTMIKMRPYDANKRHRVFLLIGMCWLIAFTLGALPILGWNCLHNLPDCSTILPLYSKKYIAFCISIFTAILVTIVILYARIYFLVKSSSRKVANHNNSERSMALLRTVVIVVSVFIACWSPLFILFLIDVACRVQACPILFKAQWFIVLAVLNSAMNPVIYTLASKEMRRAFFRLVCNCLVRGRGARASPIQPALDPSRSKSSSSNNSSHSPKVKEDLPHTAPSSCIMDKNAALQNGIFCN
Chain of Sphingosine 1-phosphate receptor 1 (P21453 whole entry): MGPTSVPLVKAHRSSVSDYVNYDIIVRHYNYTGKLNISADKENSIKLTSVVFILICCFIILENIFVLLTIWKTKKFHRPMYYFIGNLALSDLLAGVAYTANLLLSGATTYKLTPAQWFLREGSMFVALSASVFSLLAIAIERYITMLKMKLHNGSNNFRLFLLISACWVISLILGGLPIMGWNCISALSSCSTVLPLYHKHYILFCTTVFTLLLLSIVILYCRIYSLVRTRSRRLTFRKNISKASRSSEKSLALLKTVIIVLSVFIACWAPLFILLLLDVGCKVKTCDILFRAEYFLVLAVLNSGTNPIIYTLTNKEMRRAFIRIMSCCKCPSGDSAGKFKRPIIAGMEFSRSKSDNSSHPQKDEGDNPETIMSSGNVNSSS
Chain of Sphingosine 1-phosphate receptor 5 (Q9H228 whole entry): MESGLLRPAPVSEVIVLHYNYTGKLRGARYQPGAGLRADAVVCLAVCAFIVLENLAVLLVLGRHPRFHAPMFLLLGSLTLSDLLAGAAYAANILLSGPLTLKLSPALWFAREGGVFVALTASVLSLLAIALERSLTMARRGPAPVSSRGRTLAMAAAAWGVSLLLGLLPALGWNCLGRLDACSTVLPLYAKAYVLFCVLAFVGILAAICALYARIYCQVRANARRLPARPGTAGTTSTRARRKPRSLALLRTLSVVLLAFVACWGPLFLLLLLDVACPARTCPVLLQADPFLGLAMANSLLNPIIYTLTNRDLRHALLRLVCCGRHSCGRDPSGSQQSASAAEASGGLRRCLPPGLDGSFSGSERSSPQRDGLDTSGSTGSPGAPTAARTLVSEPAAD
Chain of Sphingosine 1-phosphate receptor 2 (O95136 whole entry): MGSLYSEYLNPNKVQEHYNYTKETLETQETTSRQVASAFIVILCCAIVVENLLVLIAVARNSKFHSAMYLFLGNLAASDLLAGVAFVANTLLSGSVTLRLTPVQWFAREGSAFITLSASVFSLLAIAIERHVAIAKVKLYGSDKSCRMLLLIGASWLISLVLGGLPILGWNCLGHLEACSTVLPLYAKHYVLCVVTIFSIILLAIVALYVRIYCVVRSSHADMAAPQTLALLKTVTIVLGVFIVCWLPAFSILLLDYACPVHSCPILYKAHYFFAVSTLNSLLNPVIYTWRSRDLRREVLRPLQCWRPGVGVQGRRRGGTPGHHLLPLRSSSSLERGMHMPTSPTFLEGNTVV

Compound	Activity (PBL [1])	IC50 [2] [nM]	IC50 [3] [nM]	IC50 [4] [nM]	IC50 [5] [nM]	IC50 [6] [nM]	bioavailability [7] [%]	Activity (PBL [8])	clearance [9] [mL/min/kg]	Vd [10] [L/kg]	half-life [11] [h]	IC50 ([3]; cho) [nM]	Activity (PBL [12]) [%]
O=C(O)C[C@@H]1CN[C@@H](c2ccc(-c3noc(-c4ccc([C@@H]5CCC(F)(F)C5)cc4)n3)cc2)C1 (stereo in doubt; 22f) [listing 1 of 2 here]	Active												
O=C(O)C1CNC(c2ccc(OCc3cc(-c4ccccc4)c(C(F)(F)F)s3)cc2)C1 (stereo not given)		25	> 10000	4800	2700	130							
CC(C)Cc1ccc(-c2nc(-c3ccc(CN4CC(C(=O)O)C4)cc3)no2)cc1							67						
O=C(O)C[C@@H]1CN[C@@H](c2ccc(-c3noc(-c4ccc(C5CCC(F)(F)CC5)cc4)n3)cc2)C1 (relative stereo)	Active	2	> 10000	460	110	21	23	Active	3.5	2.2	4.4		
O=C(O)C[C@@H]1CN[C@@H](c2ccc(-c3noc(-c4ccc([C@@H]5CCC(F)(F)C5)cc4)n3)cc2)C1 (stereo in doubt; 22g) [listing 1 of 2 here]	Active							Active					
CC(C)Cc1ccc(-c2nc(-c3ccc([C@H]4C[C@H](CC(=O)O)CN4)cc3)no2)cc1 (relative stereo)		5.7	> 10000	> 1000	150	300	79		7.4	6.6	10.7		
O=C(O)C[C@@H]1CN[C@@H](c2ccc(-c3noc(-c4ccc(C5CCCCC5)cc4)n3)cc2)C1 (relative stereo)		1.4	> 10000	3100	110	57		Active					
O=C(O)C[C@@H]1CN[C@@H](c2ccc(-c3noc(-c4ccc([C@@H]5CCC(F)(F)C5)cc4)n3)cc2)C1 (stereo in doubt; 22g) [listing 2 of 2 here]		0.8	> 10000	1100	800	11	36		2.1	1.3	5.6		
O=C(O)C[C@@H]1CN[C@@H](c2ccc(-c3noc(-c4ccc([C@@H]5CCC(F)(F)C5)cc4)n3)cc2)C1 (stereo in doubt; 22f) [listing 2 of 2 here]		1.2		690	32	5.1						> 10000	
O=C(O)C[C@@H]1CN[C@@H](c2ccc(-c3noc(-c4ccc(CCC(F)(F)F)cc4)n3)cc2)C1 (relative stereo)		5.5	> 10000	> 1000	230	50							
CC(C)Cc1ccc(-c2nc(-c3ccc([C@H]4C[C@@H](CC(=O)O)CN4)cc3)no2)cc1 (relative stereo)		7.9	> 10000	1500	160	140	27	Active	3.4	2.9	10.9		
O=C(O)C[C@@H]1CN[C@@H](c2ccc(-c3noc(-c4ccc(C5CCCC5)cc4)n3)cc2)C1 (relative stereo)		1	> 10000	> 1000	120	68							
O=C(O)CC1CNC(c2ccc(OCc3cc(-c4ccccc4)c(C(F)(F)F)s3)cc2)C1 (stereo not given)		2.2	> 10000	2100	390	390							39
